Reference: PubChem BioAssay (NCI)
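Cells were grown in 96-well plates and exposed to each compound for 48 hours at five concentrations; endpoints were interpolated linearly between bracketing concentrations, or set to the highest concentration if not reached. Definition used: TGI = concentration required for complete inhibition of growth.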

Columns and labels:
Experiment in all cases: NCI tumour cell line growth inhibition, 48 h
[1] = tested on: HL-60(TB) leukemia
[2] = tested on: SNB-75 CNS
[3] = tested on: HCT-15 colon
[4] = tested on: SK-MEL-28 melanoma
[5] = tested on: MCF7 breast
[6] = tested on: MDA-N
[7] = tested on: K-562 leukemia
[8] = tested on: EKVX NSCLC
[9] = tested on: A549 NSCLC
[10] = tested on: SF-539 CNS
[11] = tested on: NCI-H522 lung
[12] = tested on: OVCAR-4 ovarian

SMILES	TGI [1] [µM]	TGI [2] [µM]	TGI [3] [µM]	TGI [4] [µM]	TGI [5] [µM]	TGI [6] [µM]	TGI [7] [µM]	TGI [8] [µM]	TGI [9] [µM]	TGI [10] [µM]	TGI [11] [µM]	TGI [12] [µM]
O=c1oc2cccnc2n1CCN1CCN(c2ccc(Oc3ccccc3)cc2)CC1	86.4	> 100	> 100	> 100	> 100	> 100	> 100	> 100	> 100	> 100	> 100	75.4
O=Cc1[nH]c(=O)[nH]c(=O)c1CCl	> 72.9	75.6	> 100	> 100	> 100	> 100	> 100	> 100	> 100	> 100	> 100	> 100
